The molecules below were run against T1, GLP-1 Receptor (Homo sapiens, UniProt P43220) (assay: GLP-1R agonist cAMP stimulation assay (HEK293/GLP1R/CRE-LUC cells, Cisbio cAMP dynamic 2 kit)). Conditions: HEK293/CRE-Luc cell line stably expressing the GLP-1 Receptor; 1000 cells/well; 30 min at 37° C.; 0.5 mM IBMX, 0.1% BSA; read-out: GLP1R cAMP Stimulation DR: EC50.
T1 construct: host or cells: HEK293/GLP1R/CRE-LUC (HEK293/CRE-Luc stably expressing the GLP-1 receptor)
Format: cell-based
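Note: compounds tested in half-log serial dilution, cAMP detected with cAMP-d2 and anti-cAMP cryptate antibody reagents after 1 h at room temperature.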

T1 sequence (P43220 24-463, species assumed): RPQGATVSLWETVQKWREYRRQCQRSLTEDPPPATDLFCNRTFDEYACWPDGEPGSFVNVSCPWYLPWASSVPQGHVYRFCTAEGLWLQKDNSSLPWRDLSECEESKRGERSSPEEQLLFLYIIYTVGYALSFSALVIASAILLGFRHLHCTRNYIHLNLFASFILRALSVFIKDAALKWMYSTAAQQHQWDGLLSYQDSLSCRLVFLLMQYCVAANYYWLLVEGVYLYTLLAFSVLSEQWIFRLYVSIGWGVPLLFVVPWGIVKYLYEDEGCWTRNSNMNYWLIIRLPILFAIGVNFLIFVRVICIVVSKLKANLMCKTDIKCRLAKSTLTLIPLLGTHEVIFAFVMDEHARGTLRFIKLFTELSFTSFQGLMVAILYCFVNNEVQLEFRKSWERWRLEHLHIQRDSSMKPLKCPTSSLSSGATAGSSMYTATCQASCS

Question: `CN(CCn1c(/C=C/C(=O)O)cnc1CN1CCC(c2cccc3c2OC(C)(c2ccc(Cl)cc2F)O3)CC1)S(C)(=O)=O` (centres unmarked) [Compound 176, (E)-3-(2-((4-(2-(4-chloro-2-fluorophenyl)-2-methylbenzo[d][1,3]dioxol-4-yl)piperidin-1-yl)methyl)-1-(2-(N-methylmethylsulfonamido)ethyl)-1H-imidazol-5-yl)acrylic acid] was tested. Which EC50 did it give?
Answer: Its EC50 is 0.058 nM.

Question: How did the EC50 turn out when `Cc1ncsc1Cn1c(/C=C/C(=O)O)cnc1CN1CCC(c2cccc3c2OC(C)(c2ccc(Cl)cc2F)O3)CC1` (centres unmarked) [Compound 189, (E)-3-(2-((4-(2-(4-chloro-2-fluorophenyl)-2-methylbenzo[d][1,3]dioxol-4-yl)piperidin-1-yl)methyl)-1-((4-methylthiazol-5-yl)methyl)-1H-imidazol-5-yl)acrylic acid] was run?
Answer: The EC50 was 0.022 nM.

Question: How did the EC50 turn out when `CC1(c2ccc(Cl)cc2F)Oc2cccc(C3CCN(Cc4ncc(/C=C/C(=O)O)n4[C@@H]4CCOC4)CC3)c2O1` (stereo partly drawn) [Compound 163, (E)-3-(2-((4-(2-(4-chloro-2-fluorophenyl)-2-methylbenzo[d][1,3]dioxol-4-yl)piperidin-1-yl)methyl)-1-((R)-tetrahydrofuran-3-yl)-1H-imidazol-5-yl)acrylic acid] was run?
Answer: The EC50 was 0.13 nM.

Question: Which EC50 does the source give for `CCn1cncc1Cn1c(/C=C/C(=O)O)nnc1CN1CCC(c2cccc(OCc3ccc(Cl)cc3F)n2)CC1` [Compound 228, (E)-3-(5-((4-(6-((4-chloro-2-fluorobenzyl)oxy)pyridin-2-yl)piperidin-1-yl)methyl)-4-((1-ethyl-1H-imidazol-5-yl)methyl)-4H-1,2,4-triazol-3-yl)acrylic acid] here?
Answer: Its EC50 is 0.0048 nM.

Question: For `C[C@H]1CN(c2cccc3c2OC(C)(c2ccc(Cl)cc2F)O3)CCN1Cc1ncc(/C=C/C(=O)O)n1C[C@@H]1CCO1` (stereo partly drawn) [Compound 180, (E)-3-(2-(((2S)-4-(2-(4-chloro-2-fluorophenyl)-2-methylbenzo [d][1,3]dioxol-4-yl)-2-methylpiperazin-1-yl)methyl)-1-(((S)-oxetan-2-yl)methyl)-1H-imidazol-5-yl)acrylic acid], which EC50 is on record?
Answer: The EC50 was 0.026 nM.

Question: `COCCn1c(CN2CCC(c3cccc(OCc4ccc(Cl)cc4F)n3)CC2)nnc1C(C)=CC(=O)O` [Compound 235, 3-(5-((4-(6-((4-chloro-2-fluorobenzyl)oxy)pyridin-2-yl)piperidin-1-yl)methyl)-4-(2-methoxyethyl)-4H-1,2,4-triazol-3-yl)but-2-enoic acid] was tested. Which EC50 did it give?
Answer: Its EC50 is 10 nM.

Question: For `O=C(O)/C=C/c1cnc(CN2CCC(c3cccc4c3OC[C@@H](c3ccc(Cl)cc3)O4)CC2)n1Cc1ncco1` [Compound 186a, (R,E)-3-(2-((4-(2-(4-chlorophenyl)-2,3-dihydrobenzo [b][1,4]dioxin-5-yl)piperidin-1-yl)methyl)-1-(oxazol-2-ylmethyl)-1H-imidazol-5-yl)acrylic acid], which EC50 is on record?
Answer: The EC50 was 0.41 nM.

Question: How did the EC50 turn out when `CCn1cncc1Cn1c(/C=C(\C)C(=O)O)cnc1CN1CCC(c2cccc(OCc3ccc(Cl)cn3)n2)CC1` [Compound 220, (E)-3-(2-((4-(6-((5-chloropyridin-2-yl)methoxy)pyridin-2-yl)piperidin-1-yl)methyl)-1-((1-ethyl-1H-imidazol-5-yl)methyl)-1H-imidazol-5-yl)-2-methylacrylic acid] was run?
Answer: The EC50 was 0.11 nM.

Question: Which EC50 does the source give for `CC1(c2ccc(Cl)cc2F)Oc2cccc(C3CCN(Cc4ncc(/C=C/C(=O)O)n4CC4COC4)CC3)c2O1` (centres unmarked) [Compound 194, (E)-3-(2-((4-(2-(4-chloro-2-fluorophenyl)-2-methylbenzo[d][1,3]dioxol-4-yl)piperidin-1-yl)methyl)-1-(oxetan-3-ylmethyl)-1H-imidazol-5-yl)acrylic acid] here?
Answer: The EC50 was 0.064 nM.

Question: For `COC(C)Cn1c(/C=C/C(=O)O)cnc1CN1CCC(c2cccc3c2OC(C)(c2ccc(Cl)cc2F)O3)CC1` (centres unmarked) [Compound 159, (E)-3-(2-((4-(2-(4-chloro-2-fluorophenyl)-2-methylbenzo[d][1,3]dioxol-4-yl)piperidin-1-yl)methyl)-1-(2-methoxypropyl)-1H-imidazol-5-yl)acrylic acid], which EC50 is on record?
Answer: Its EC50 is 0.051 nM.

Question: For `O=C(O)/C=C/c1nnc(CN2CCC(c3cccc(OCc4ccc(Cl)cc4F)n3)CC2)n1CC1CCC1` [Compound 229, (E)-3-(5-((4-(6-((4-chloro-2-fluorobenzyl)oxy)pyridin-2-yl)piperidin-1-yl)methyl)-4-(cyclobutylmethyl)-4H-1,2,4-triazol-3-yl)acrylic acid], which EC50 is on record?
Answer: Its EC50 is 2.7 nM.

Question: Which EC50 does the source give for `Cn1c(-c2nn[nH]n2)cnc1CN1CCC(c2cccc(OCc3ccc(Cl)cc3F)n2)CC1` [Compound 105, 2-((4-chloro-2-fluorobenzyl)oxy)-6-(1-((1-methyl-5-(2H-tetrazol-5-yl)-1H-imidazol-2-yl)methyl)piperidin-4-yl)pyridine] here?
Answer: Its EC50 is 59.2 nM.

Question: Which EC50 does the source give for `C[C@@]1(c2ccc(Cl)cc2F)Oc2cccc(C3CCN(Cc4ncc(/C=C/C(=O)O)n4C[C@@H]4CCO4)CC3)c2O1` [Compound 135b, (E)-3-(2-((4-((R)-2-(4-chloro-2-fluorophenyl)-2-methylbenzo[d][1,3]dioxol-4-yl)piperidin-1-yl)methyl)-1-(((S)-oxetan-2-yl)methyl)-1H-imidazol-5-yl)acrylic acid] here?
Answer: The EC50 was 15 nM.

Question: With `COCCn1c(/C=C/C(=O)O)cnc1CN1CCC(c2cccc3c2OC(C)(c2ccc(Cl)cc2F)O3)CC1` (centres unmarked) [Compound 141, (E)-3-(2-((4-(2-(4-chloro-2-fluorophenyl)-2-methylbenzo[d][1,3]dioxol-4-yl)piperidin-1-yl)methyl)-1-(2-methoxyethyl)-1H-imidazol-5-yl)acrylic acid] as the molecule, how does the EC50 read?
Answer: The EC50 was 0.012 nM.

Question: How did the EC50 turn out when `CC1(c2ccc(Cl)cc2F)Oc2cccc(C3CCN(Cc4ncc(CCC(=O)O)n4CC4CCS4(=O)=O)CC3)c2O1` (centres unmarked) [Compound 240, 3-(2-((4-(2-(4-chloro-2-fluorophenyl)-2-methylbenzo[d][1,3]dioxol-4-yl)piperidin-1-yl)methyl)-1-((1,1-dioxidothietan-2-yl)methyl)-1H-imidazol-5-yl)propanoic acid] was run?
Answer: Its EC50 is 0.38 nM.

Question: `C[C@@H](Cn1c(/C=C/C(=O)O)cnc1CN1CCC(c2cccc3c2O[C@@](C)(c2ccc(Cl)cc2F)O3)CC1)OC(F)F` [Compound 169a, (E)-3-(2-((4-((S)-2-(4-chloro-2-fluorophenyl)-2-methylbenzo[d][1,3]dioxol-4-yl)piperidin-1-yl)methyl)-1-((S)-2-(difluoromethoxy)propyl)-1H-imidazol-5-yl)acrylic acid] was tested. Which EC50 did it give?
Answer: The EC50 was 0.16 nM.

Question: `Cn1c(/C=C/C(=O)O)nnc1CN1CCC(c2cccc(OCc3ccc(Cl)cc3F)n2)CC1` [Compound 112, (E)-3-(5-((4-(6-((4-chloro-2-fluorobenzyl)oxy)pyridin-2-yl)piperidin-1-yl)methyl)-4-methyl-4H-1,2,4-triazol-3-yl)acrylic acid] was tested. Which EC50 did it give?
Answer: Its EC50 is 2.01 nM.

Question: With `Cc1ncoc1Cn1c(CCC(=O)O)cnc1CN1CCC(c2cccc3c2OC(C)(c2ccc(Cl)cc2F)O3)CC1` (centres unmarked) [Compound 241, 3-(2-((4-(2-(4-chloro-2-fluorophenyl)-2-methylbenzo[d][1,3]dioxol-4-yl)piperidin-1-yl)methyl)-1-((4-methyloxazol-5-yl)methyl)-1H-imidazol-5-yl)propanoic acid] as the molecule, how does the EC50 read?
Answer: The EC50 was 0.21 nM.

Question: `COCCn1c(/C(F)=C/C(=O)O)cnc1CN1CCC(c2cccc(OCc3ccc(Cl)cc3F)n2)CC1` [Compound 221, (Z)-3-(2-((4-(6-((4-chloro-2-fluorobenzyl)oxy)pyridin-2-yl)piperidin-1-yl)methyl)-1-(2-methoxyethyl)-1H-imidazol-5-yl)-3-fluoroacrylic acid] was tested. Which EC50 did it give?
Answer: The EC50 was 0.56 nM.

Question: `CC1(c2ccc(Cl)cc2F)Oc2cccc(C3CCN(Cc4ncc(CCC(=O)O)n4CCOC(F)F)CC3)c2O1` (centres unmarked) [Compound 238, 3-(2-((4-(2-(4-chloro-2-fluorophenyl)-2-methylbenzo[d][1,3]dioxol-4-yl)piperidin-1-yl)methyl)-1-(2-(difluoromethoxy)ethyl)-1H-imidazol-5-yl)propanoic acid] was tested. Which EC50 did it give?
Answer: Its EC50 is 0.43 nM.

Question: Which EC50 does the source give for `CCn1cncc1Cn1c(/C=C(\C)C(=O)O)cnc1CN1CCC(c2cccc3c2O[C@@](C)(c2ccc(Cl)cc2F)O3)CC1` [Compound 138a, (S,E)-3-(2-((4-(2-(4-chloro-2-fluorophenyl)-2-methylbenzo[d][1,3]dioxol-4-yl)piperidin-1-yl)methyl)-1-((1-ethyl-1H-imidazol-5-yl)methyl)-1H-imidazol-5-yl)-2-methylacrylic acid] here?
Answer: Its EC50 is 0.0023 nM.

Question: For `O=C(O)C1CC1c1cnc(CN2CCC(c3cccc4c3OC[C@@H](c3ccc(Cl)cc3)O4)CC2)n1C[C@@H]1CCO1` (stereo partly drawn) [Compound 248, 2-(2-((4-((R)-2-(4-chlorophenyl)-2,3-dihydrobenzo[b][1,4]dioxin-5-yl)piperidin-1-yl)methyl)-1-(((S)-oxetan-2-yl)methyl)-1H-imidazol-5-yl)cyclopropane-1-carboxylic acid], which EC50 is on record?
Answer: Its EC50 is 35 nM.

Question: How did the EC50 turn out when `C[C@H](c1ccccc1)n1c(/C=C/C(=O)O)cnc1CN1CCC(c2cccc3c2OC(C)(c2ccc(Cl)cc2F)O3)CC1` (stereo partly drawn) [Compound 153, (E)-3-(2-((4-(2-(4-chloro-2-fluorophenyl)-2-methylbenzo[d][1,3]dioxol-4-yl)piperidin-1-yl)methyl)-1-((R)-1-phenylethyl)-1H-imidazol-5-yl)acrylic acid] was run?
Answer: Its EC50 is 18 nM.

Question: How did the EC50 turn out when `CC1(c2ccc(Cl)cc2F)Oc2cccc(C3CCN(Cc4ncc(/C=C/C(=O)O)n4CCOC(F)F)CC3)c2O1` (centres unmarked) [Compound 168, (E)-3-(2-((4-(2-(4-chloro-2-fluorophenyl)-2-methylbenzo[d][1,3]dioxol-4-yl)piperidin-1-yl)methyl)-1-(2-(difluoromethoxy)ethyl)-1H-imidazol-5-yl)acrylic acid] was run?
Answer: Its EC50 is 0.046 nM.

Question: `COc1cccc(Cn2c(CCC(=O)O)cnc2CN2CCC(c3cccc4c3OC(C)(c3ccc(Cl)cc3F)O4)CC2)c1` (centres unmarked) [Compound 243, 3-(2-((4-(2-(4-chloro-2-fluorophenyl)-2-methylbenzo[d][1,3]dioxol-4-yl)piperidin-1-yl)methyl)-1-(3-methoxybenzyl)-1H-imidazol-5-yl)propanoic acid] was tested. Which EC50 did it give?
Answer: The EC50 was 0.87 nM.

Question: For `CCc1ncccc1Cn1c(/C=C/C(=O)O)cnc1CN1CCC(c2cccc3c2OC(C)(c2ccc(Cl)cc2F)O3)CC1` (centres unmarked) [Compound 148, (E)-3-(2-((4-(2-(4-chloro-2-fluorophenyl)-2-methylbenzo[d][1,3]dioxol-4-yl)piperidin-1-yl)methyl)-1-((2-ethylpyridin-3-yl)methyl)-1H-imidazol-5-yl)acrylic acid], which EC50 is on record?
Answer: Its EC50 is 0.98 nM.

Source: patent US11897851B2, “Heterocyclic GLP-1 agonists” (Gasherbrum Bio, Inc., priority 2021, dated 2024)
